Test results: patent US10959992B2, “Methods of treatment of asthma and COPD” (Bridge Pharma, Inc., priority 2019, dated 2021)
In brackets after ≈: the same amount, converted by molar mass. Read-outs that look alike come from different tables or passages of the source.

Experiments:
PAF-induced eosinophilia = experiment: PAF-induced pulmonary eosinophil accumulation after continuous subcutaneous dosing; assay type: in vivo, Sprague-Dawley rats; conditions: sc 1.0 mg/kg/day for six days, PAF-treated rats
Protocol: Male Sprague-Dawley rats, 400-600 g, were used in these studies.
The study described here used subcutaneous administration of norketotifen and ketotifen by Alzet® osmotic pumps. The rats were administered either RS-norketotifen hydrogen fumarate (1.0 mg/kg/day) or RS-ketotifen hydrogen fumarate (1.0 mg/kg/day) or saline. After five days of sc infusions of test articles and the vehicle, the animals were injected, i.p. with 10 μg PAF (platelet aggregating factor) in 0.25% bovine serum albumin (BSA) in saline. The subcutaneous infusions of test articles or vehicle were continued for another twenty-four hours and the animals were then sacrificed by intraperitoneal injections of a barbiturate. The tracheae of the euthanized animals were exposed and cannulated and aliquots (6×10 ml) of a Tyrode solution were successively introduced into the lungs and aspirated by gentle compression of the thorax. The total recovery of lung fluid was usually above 80%. The cell suspensions were concentrated by low speed centrifugation (200 g for 10 min) and the resulting cell pellet was resuspended in 1 ml of a Tyrode solution. Total cell counts were performed after dilution in Turks fluid, fixation in methanol and Leishman staining.
The study shown here used norketotifen, ketotifen, and saline (control) after continuous dosing with Alzet® Osmotic pumps.

TNF-α = experiment: PHA-induced release of TNF-α from human buffy coats; assay type: cell-based; conditions: PHA 5 μg/ml, 16 hours, inhibition
Protocol: (§1) The study was conducted in two phases. The first phase included optimization of the test methodology and included also dose-range finding studies, using buffy coats from 3 human donors, stimulated with phytohemagglutinin (PHA). The concentrations of the test article and the duration of exposure were optimized to obtain acceptable dose-response ratios. Following optimization of the test conditions, a final protocol was issued. In the Main Study, buffy coats from 5 healthy human male donors were stimulated with PHA, 5 μg/ml.
(§2) The inhibitory effects of three concentrations of NK and one concentration of ketotifen were evaluated in the Main Study. The buffy coats were resuspended in assay media and were pre-incubated for 30 min with either vehicle/saline, ketotifen (10 μM) or norketotifen (1.0; 10 or 100 μM). Following these preincubations, the white blood cell suspensions were stimulated for 16 hours with PHA, 5 μg/ml. The cell system supernatants were then harvested and stored frozen.

Haemophilus influenza = experiment: Antimicrobial activity (MIC), Haemophilus influenza; assay type: cell-based; conditions: Bacteria: Hi, MIC refers to lethal concentrations
Moraxella catarrhalis = experiment: Antimicrobial activity (MIC), Moraxella catarrhalis; assay type: cell-based; conditions: Bacteria: Mc, MIC refers to lethal concentrations
Water solubility = assay type: physicochemical
[1] = Lung/plasma distribution of norketotifen in rats; assay type: in vivo, SPD rats; conditions: for Kp: male, SPD, rat, lung/plasma, 20 mg/kg/day; for Lung Concentration / Plasma Concentration: rats
Protocol: Groups of male SPD rats (200-230 g) were administered racemic norketotifen hydrogen Fumarate 20 mg/kg/day (=14.4 mg/kg/day of the free base) for 10 consecutive days. Lung and plasma samples were collected and prepared and the concentrations of RS-norketotifen were determined using a qualified LC-MS-MS analytical method. LLQ (Lowest Level of Quantification) was <0.5 ng/ml.

[2] = system: oxazolone-induced increase in ear thickness; experiment: Oxazolone test of immunosuppression (ear thickness); assay type: in vivo, BALB/c mice; conditions: for Increase in ear thickness (mm): control 0.153; for Increase in ear thickness (%): control 100.0
Protocol: Male BALB/c mice, 20-24 grams, 7-12 weeks, were used. The sensitization dosing (Day 1) consisted of painting the ventral portion of the pre-shaved abdominal skin with 0.1 ml of 3.0% oxazolone in 70% ethanol. Test articles were administered orally in 1.0% methyl-cellulose, starting on Day 1 and continuing for 10 consecutive days. The challenge dosing consisted of the application of 0.05 ml of 3.0% oxazolone in 70% ethanol on both sides of the outer pinna of the right ear. The thickness of both ears of all animals was measured with a calliper before the challenge dose and 24 hours after the administration of the challenge dose (Day 10). The ear thickness of untreated mice was 0.19 to 0.20 mm.
Justification of the model: The classic oxazolone test method was used with minor modifications. This method has been used for over 40 years in numerous drug development projects.

IL-8 = experiment: PHA-induced release of IL-8 from human buffy coats; assay type: cell-based; conditions: PHA 5 μg/ml, 16 hours, inhibition
Protocol: as §1, §2

IL-13 = experiment: PHA-induced release of IL-13 from human buffy coats; assay type: cell-based; conditions: PHA 5 μg/ml, 16 hours, inhibition
Protocol: as §1, §2

[3] = Plasma concentration after sc infusion (follow-up study); assay type: in vivo; conditions: Sprague-Dawley, rat, 1 mg/kg/day, after sc infusion of RS-norketotifen for 5 days, rats
IL-6 = experiment: PHA-induced release of IL-6 from human buffy coats; assay type: cell-based; conditions: PHA 5 μg/ml, 16 hours, inhibition
Protocol: as §1, §2

[4] = Dose Day 4, once daily oral 14.4 mg/kg free base
[5] = Dose Day 7, once daily oral 14.4 mg/kg free base
[6] = Last dose + 24 hrs, once daily oral 14.4 mg/kg free base for 10 days
[7] = Last dose, Day 10, once daily oral 14.4 mg/kg free base
[8] = 10.0 mg/kg/day oral for 10 days
[9] = 30.0 mg/kg/day oral for 10 days

Q: For O=C1Cc2ccccc2C(=C2CCNCC2)c2ccsc21 (racemic) [norketotifen], which “Reduction of eosinophil counts below the baseline (saline control) level” value (PAF-induced eosinophilia) is on record?
A: 26%

Q: And the “Effect on PHA-induced release of TNF-α (%)” value (“Effect … of TNF-α (%)” below) (TNF-α; 1 uM)?
A: 45.57^2%

Q: And the “Effect … of TNF-α (%)” value (TNF-α; 10 uM)?
A: 63.07^1%

Q: And the “Effect … of TNF-α (%)” value (TNF-α; 100 uM)?
A: 95.68^1%

Q: And the MIC (Haemophilus influenza)?
A: about 0.25 mg/mL

Q: What about the MIC (Haemophilus influenza; Haemophilus, read-out: MIC) of the same compound?
A: 250 µg/mL (≈ 846 µM)

Q: And the MIC (Moraxella catarrhalis)?
A: 250 µg/mL (≈ 846 µM)

Q: What about the MIC (Moraxella catarrhalis; Moraxella catarrhalis, read-out: MIC) of the same compound?
A: 250 µg/mL (≈ 846 µM)

Q: And the Water solubility (Water solubility)?
A: about 2%

Q: And the solubility (Water solubility; water)?
A: ~20 mg/mL (≈ 67700 µM)

Q: What about the Kp ([1]; oral, Dose Day 4, read-out: Lung/Plasma Ratio in Rats) of the same compound?
A: 133

Q: And the Kp ([1]; oral, Dose Day 7, read-out: Lung/Plasma Ratio in Rats)?
A: 92

Q: What about the Kp ([1]; oral, Last dose + 24 hrs, read-out: Lung/Plasma Ratio in Rats) of the same compound?
A: 107

Q: What about the Kp ([1]; oral, Last dose, Day 10, read-out: Lung/Plasma Ratio in Rats) of the same compound?
A: 79

Q: And the Kp ([1]; po, mean of the four study days, oral dosing, read-out: Lung/Plasma Ratio in Rats, Mean ± SEM)?
A: 103

Q: And the “Lung/Plasma Ratio in Rats, Mean ± SEM” value ([1]; mean of the four study days, oral dosing)?
A: 100

Q: What about the “Lung/Plasma Ratio in Rats, Mean ± SEM” value ([1]; mean of the four study days, oral dosing, listed as NK) of the same compound?
A: 103 ± 11.6

Q: And the “Lung/Plasma Ratio in Rats, Mean ± SEM” value ([1]; mean of the four study days, oral dosing, listed as RS-norketotifen)?
A: ~100

Q: And the “Lung Concentration” value [1, 4]?
A: 23612 ng/g

Q: And the “Plasma Concentration” value [1, 4]?
A: 178 ng/mL

Q: And the “Lung Concentration” value [1, 5]?
A: 25355 ng/g

Q: What about the “Plasma Concentration” value [1, 5] of the same compound?
A: 276 ng/mL

Q: And the “Lung Concentration” value [1, 6]?
A: 890 ng/g

Q: What about the “Plasma Concentration” value [1, 6] of the same compound?
A: 8.3 ng/mL

Q: And the “Lung Concentration” value [1, 7]?
A: 18171 ng/g

Q: What about the “Plasma Concentration” value [1, 7] of the same compound?
A: 229 ng/mL

Q: What about the “Immunosuppression (%)” value [2, 8] of the same compound?
A: 3.9%

Q: What about the “Increase in ear thickness (mm)” value [2, 8] of the same compound?
A: 0.147 mm

Q: And the “Increase in ear thickness (%)” value [2, 8]?
A: 96.1%

Q: And the “Immunosuppression (%)” value [2, 9]?
A: 8.5%

Q: What about the “Increase in ear thickness (mm)” value [2, 9] of the same compound?
A: 0.140 mm

Q: What about the “Increase in ear thickness (%)” value [2, 9] of the same compound?
A: 91.5%

Q: And the “Immuno-suppressant activity (conclusion in words)” value ([2]; daily oral dosing for 10 days to mice, RS-norketotifen 10 or 30 mg/kg, prednisolone at 10 times lower doses)?
A: did not induce immuno-suppressant activity

Q: What about the “Effect on PHA-induced release of IL-8 (%)” value (shortened to “Effect … of IL-8 (%)”) (IL-8; 1 uM) of the same compound?
A: 10.29^2%

Q: And the “Effect … of IL-8 (%)” value (IL-8; 10 uM)?
A: 34.36^1%

Q: And the “Effect … of IL-8 (%)” value (IL-8; 100 uM)?
A: 78.29^1%

Q: And the “Effect on PHA-induced release of IL-13 (%)” value (“Effect … of IL-13 (%)” below) (IL-13; 1 uM)?
A: 0.00%

Q: What about the “Effect … of IL-13 (%)” value (IL-13; 10 uM) of the same compound?
A: 34.49^1%

Q: And the “Effect … of IL-13 (%)” value (IL-13; 100 uM)?
A: 74.25^1%

Q: What about the concentration at 5 days [3] of the same compound?
A: 4 ± 0.24 ng/mL

Q: What about the “Effect on PHA-induced release of IL-6 (%)” value (shortened to “Effect … of IL-6 (%)”) (IL-6; 1 uM) of the same compound?
A: 0.00%

Q: What about the “Effect … of IL-6 (%)” value (IL-6; 10 uM) of the same compound?
A: 33.13^1%

Q: What about the “Effect … of IL-6 (%)” value (IL-6; 100 uM) of the same compound?
A: 88.16^1%
